# According to patent publication US20150017667A1, “MEANS AND METHODS FOR ASSESSING LIVER DISORDERS” (BASF SE, priority 2012, published 2015):
# Marks after values point to notes of the source that are not given here.
# System: male rats
# Assay: 28-day repeated dose oral toxicity study (OECD 407) with GC-MS/LC-MS plasma metabolite profiling, male rats
# Format: in vivo, rat
# Conditions: plasma
# Source text: Drinking water was also offered ad libitum.
# The samples were centrifuged for generation of plasma.
smiles,measurement,setting,value
CC(C)(Oc1ccc(CCNC(=O)c2ccc(Cl)cc2)cc1)C(=O)O [Bezafibrate],"3-O-Methylsphingosine (d18:1), ratio versus control",day 7,0.48*
same,"5-O-Methylsphingosine (d18:1), ratio versus control",day 7,0.4*
same,"14-Methylhexadecanoic acid, ratio versus control",day 7,0.93
same,"16-Methylheptadecanoic acid, ratio versus control",day 7,0.29*
same,"17-Methyloctadecanoic acid, ratio versus control",day 7,0.24*
same,"Arachidonic acid (C20:cis[5,8,11,14]4), ratio versus control",day 7,0.26*
same,"Arginine, ratio versus control",day 7,0.65*
same,"Ascorbic acid, ratio versus control",day 7,1.54*
same,"Behenic acid (C22:0), ratio versus control",day 7,0.44*
same,"Campesterol, ratio versus control",day 7,0.24*
same,"Cholesterol, ratio versus control",day 7,0.37*
same,"Choline plasmalogen (C18,C20:4), ratio versus control",day 7,0.47*
same,"Choline plasmalogen No 01, ratio versus control",day 7,0.87*
same,"Choline plasmalogen No 02, ratio versus control",day 7,0.46*
same,"Choline plasmalogen No 03, ratio versus control",day 7,0.49*
same,"Coenzyme Q10, ratio versus control",day 7,0.46*
same,"Cytosine, ratio versus control",day 7,0.89*
same,"Docosapentaenoic acid (C22:cis[7,10,13,16,19]5), ratio versus control",day 7,0.43*
same,"Eicosanoic acid (C20:0), ratio versus control",day 7,0.51*
same,"Glucose, ratio versus control",day 7,1.54*
same,"Glycine, ratio versus control",day 7,1.79*
same,"Heptadecanoic acid (C17:0), ratio versus control",day 7,0.69*
same,"Isopalmitic acid (C16:0), ratio versus control",day 7,0.53*
same,"Kynurenic acid, ratio versus control",day 7,1.89*
same,"Lignoceric acid (C24:0), ratio versus control",day 7,0.54*
same,"Lysophosphatidylcholine (C17:0), ratio versus control",day 7,0.51*
same,"Lysophosphatidylcholine (C18:0), ratio versus control",day 7,0.79*
same,"Lysophosphatidylcholine (C18:2), ratio versus control",day 7,1.4*
same,"Lysophosphatidylethanolamine (C22:0), ratio versus control",day 7,0.27*
same,"Lysophosphatidylethanolamine (C22:5), ratio versus control",day 7,1.59*
same,"Mannose, ratio versus control",day 7,1.32*
same,"Metanephrine, ratio versus control",day 7,0.5
same,"Nervonic acid (C24:cis[15]1), ratio versus control",day 7,0.4*
same,"Normetanephrine, ratio versus control",day 7,0.6*
same,"Pantothenic acid, ratio versus control",day 7,2.36*
same,"Phosphatidylcholine (C18:0,C20:3), ratio versus control",day 7,0.48*
same,"Phosphatidylcholine (C18:0,C20:4), ratio versus control",day 7,0.78*
same,"Phosphatidylcholine (C18:2,C20:4), ratio versus control",day 7,0.65*
same,"Phosphatidylcholine No 02, ratio versus control",day 7,0.35*
same,"Phosphatidylcholine No 04, ratio versus control",day 7,0.23*
same,"Sphingomyelin (d18:1,C16:0), ratio versus control",day 7,0.88*
same,"Sphingomyelin (d18:2,C16:0), ratio versus control",day 7,0.72*
same,"Stearic acid (C18:0), ratio versus control",day 7,0.42*
same,"Tricosanoic acid (C23:0), ratio versus control",day 7,0.5*
same,"beta-Sitosterol, ratio versus control",day 7,0.24*
same,"dihomo-gamma-Linolenic acid (C20:cis[8,11,14]3), ratio versus control",day 7,3.63*
same,"erythro-Sphingosine, ratio versus control",day 7,0.49*
same,"myo-Inositol-2-phosphate, lipid fraction, ratio versus control",day 7,0.28*
same,"threo-Sphingosine, ratio versus control",day 7,0.56*
same,"trans-4-Hydroxyproline, ratio versus control",day 7,0.71*
same,"Lysophosphatidylcholine (C18:1), ratio versus control",day 7 (Table 3a),1.44*
same,"Phosphatidylcholine (C16:0,C20:5), ratio versus control",day 7 (Table 3a),1.4*
same,"Docosahexaenoic acid (C22:cis[4,7,10,13,16,19]6), ratio versus control",day 7 (Table 3b),0.25*
same,"Phosphatidylcholine (C18:0,C22:6), ratio versus control",day 7 (Table 3b),0.36*
same,"alpha-Tocopherol, ratio versus control",day 7 (Table 3b),0.75*
same,"3-O-Methylsphingosine (d18:1), ratio versus control",day 14,0.44*
same,"5-O-Methylsphingosine (d18:1), ratio versus control",day 14,0.41*
same,"14-Methylhexadecanoic acid, ratio versus control",day 14,0.89*
same,"16-Methylheptadecanoic acid, ratio versus control",day 14,0.25*
same,"17-Methyloctadecanoic acid, ratio versus control",day 14,0.24*
same,"Arachidonic acid (C20:cis[5,8,11,14]4), ratio versus control",day 14,0.31*
same,"Arginine, ratio versus control",day 14,0.59*
same,"Ascorbic acid, ratio versus control",day 14,1.32*
same,"Behenic acid (C22:0), ratio versus control",day 14,0.58*
same,"Campesterol, ratio versus control",day 14,0.31*
same,"Cholesterol, ratio versus control",day 14,0.48*
same,"Choline plasmalogen (C18,C20:4), ratio versus control",day 14,0.5*
same,"Choline plasmalogen No 01, ratio versus control",day 14,0.82*
same,"Choline plasmalogen No 02, ratio versus control",day 14,0.52*
same,"Choline plasmalogen No 03, ratio versus control",day 14,0.63*
same,"Coenzyme Q10, ratio versus control",day 14,0.58*
same,"Cytosine, ratio versus control",day 14,0.84
same,"Docosapentaenoic acid (C22:cis[7,10,13,16,19]5), ratio versus control",day 14,0.62*
same,"Eicosanoic acid (C20:0), ratio versus control",day 14,0.67*
same,"Glucose, ratio versus control",day 14,1.29*
same,"Glycine, ratio versus control",day 14,1.58*
same,"Heptadecanoic acid (C17:0), ratio versus control",day 14,0.83*
same,"Isopalmitic acid (C16:0), ratio versus control",day 14,0.53*
same,"Kynurenic acid, ratio versus control",day 14,5.15*
same,"Lignoceric acid (C24:0), ratio versus control",day 14,0.44*
same,"Lysophosphatidylcholine (C17:0), ratio versus control",day 14,0.51*
same,"Lysophosphatidylcholine (C18:0), ratio versus control",day 14,0.85*
same,"Lysophosphatidylcholine (C18:2), ratio versus control",day 14,1.68*
same,"Lysophosphatidylethanolamine (C22:0), ratio versus control",day 14,0.32*
same,"Lysophosphatidylethanolamine (C22:5), ratio versus control",day 14,1.9*
same,"Mannose, ratio versus control",day 14,1.34*
same,"Metanephrine, ratio versus control",day 14,0.44*
same,"Nervonic acid (C24:cis[15]1), ratio versus control",day 14,0.44*
same,"Normetanephrine, ratio versus control",day 14,0.5*
same,"Pantothenic acid, ratio versus control",day 14,2.3*
same,"Phosphatidylcholine (C18:0,C20:3), ratio versus control",day 14,0.56*
same,"Phosphatidylcholine (C18:0,C20:4), ratio versus control",day 14,0.78
same,"Phosphatidylcholine (C18:2,C20:4), ratio versus control",day 14,0.66*
same,"Phosphatidylcholine No 02, ratio versus control",day 14,0.37*
same,"Phosphatidylcholine No 04, ratio versus control",day 14,0.25*
same,"Sphingomyelin (d18:1,C16:0), ratio versus control",day 14,0.83*
same,"Sphingomyelin (d18:2,C16:0), ratio versus control",day 14,0.67*
same,"Stearic acid (C18:0), ratio versus control",day 14,0.45*
same,"Tricosanoic acid (C23:0), ratio versus control",day 14,0.72*
same,"beta-Sitosterol, ratio versus control",day 14,0.3*
same,"dihomo-gamma-Linolenic acid (C20:cis[8,11,14]3), ratio versus control",day 14,4.4*
same,"erythro-Sphingosine, ratio versus control",day 14,0.4*
same,"myo-Inositol-2-phosphate, lipid fraction, ratio versus control",day 14,0.37*
same,"threo-Sphingosine, ratio versus control",day 14,0.52*
same,"trans-4-Hydroxyproline, ratio versus control",day 14,0.57*
same,"Lysophosphatidylcholine (C18:1), ratio versus control",day 14 (Table 3a),1.92*
same,"Phosphatidylcholine (C16:0,C20:5), ratio versus control",day 14 (Table 3a),1.4*
same,"Docosahexaenoic acid (C22:cis[4,7,10,13,16,19]6), ratio versus control",day 14 (Table 3b),0.25*
same,"Phosphatidylcholine (C18:0,C22:6), ratio versus control",day 14 (Table 3b),0.33*
same,"alpha-Tocopherol, ratio versus control",day 14 (Table 3b),0.77*
same,"3-O-Methylsphingosine (d18:1), ratio versus control",day 28,0.39*
same,"5-O-Methylsphingosine (d18:1), ratio versus control",day 28,0.4*
same,"14-Methylhexadecanoic acid, ratio versus control",day 28,0.83*
same,"16-Methylheptadecanoic acid, ratio versus control",day 28,0.16*
same,"17-Methyloctadecanoic acid, ratio versus control",day 28,0.17*
same,"Arachidonic acid (C20:cis[5,8,11,14]4), ratio versus control",day 28,0.29*
same,"Arginine, ratio versus control",day 28,0.62*
same,"Ascorbic acid, ratio versus control",day 28,1.55*
same,"Behenic acid (C22:0), ratio versus control",day 28,0.51*
same,"Campesterol, ratio versus control",day 28,0.21*
same,"Cholesterol, ratio versus control",day 28,0.43*
same,"Choline plasmalogen (C18,C20:4), ratio versus control",day 28,0.51*
same,"Choline plasmalogen No 01, ratio versus control",day 28,0.55*
same,"Choline plasmalogen No 02, ratio versus control",day 28,0.49*
same,"Choline plasmalogen No 03, ratio versus control",day 28,0.54*
same,"Coenzyme Q10, ratio versus control",day 28,0.48*
same,"Cytosine, ratio versus control",day 28,0.79*
same,"Docosapentaenoic acid (C22:cis[7,10,13,16,19]5), ratio versus control",day 28,0.31*
same,"Eicosanoic acid (C20:0), ratio versus control",day 28,0.52*
same,"Glucose, ratio versus control",day 28,1.32*
same,"Glycine, ratio versus control",day 28,1.95*
same,"Heptadecanoic acid (C17:0), ratio versus control",day 28,0.52*
same,"Isopalmitic acid (C16:0), ratio versus control",day 28,0.47*
same,"Kynurenic acid, ratio versus control",day 28,2.04*
same,"Lignoceric acid (C24:0), ratio versus control",day 28,0.44*
same,"Lysophosphatidylcholine (C17:0), ratio versus control",day 28,0.36*
same,"Lysophosphatidylcholine (C18:0), ratio versus control",day 28,0.86*
same,"Lysophosphatidylcholine (C18:2), ratio versus control",day 28,1.33*
same,"Lysophosphatidylethanolamine (C22:0), ratio versus control",day 28,0.18*
same,"Lysophosphatidylethanolamine (C22:5), ratio versus control",day 28,1.29*
same,"Mannose, ratio versus control",day 28,1.23*
same,"Metanephrine, ratio versus control",day 28,0.55*
same,"Nervonic acid (C24:cis[15]1), ratio versus control",day 28,0.39*
same,"Normetanephrine, ratio versus control",day 28,0.78*
same,"Pantothenic acid, ratio versus control",day 28,3.51*
same,"Phosphatidylcholine (C18:0,C20:3), ratio versus control",day 28,0.57*
same,"Phosphatidylcholine (C18:0,C20:4), ratio versus control",day 28,0.75*
same,"Phosphatidylcholine (C18:2,C20:4), ratio versus control",day 28,0.56*
same,"Phosphatidylcholine No 02, ratio versus control",day 28,0.47*
same,"Phosphatidylcholine No 04, ratio versus control",day 28,0.24*
same,"Sphingomyelin (d18:1,C16:0), ratio versus control",day 28,0.71*
same,"Sphingomyelin (d18:2,C16:0), ratio versus control",day 28,0.49*
same,"Stearic acid (C18:0), ratio versus control",day 28,0.39*
same,"Tricosanoic acid (C23:0), ratio versus control",day 28,0.54*
same,"beta-Sitosterol, ratio versus control",day 28,0.2*
same,"dihomo-gamma-Linolenic acid (C20:cis[8,11,14]3), ratio versus control",day 28,3.24*
same,"erythro-Sphingosine, ratio versus control",day 28,0.43*
same,"myo-Inositol-2-phosphate, lipid fraction, ratio versus control",day 28,0.38*
same,"threo-Sphingosine, ratio versus control",day 28,0.55*
same,"trans-4-Hydroxyproline, ratio versus control",day 28,0.72*
same,"Lysophosphatidylcholine (C18:1), ratio versus control",day 28 (Table 3a),1.22*
same,"Phosphatidylcholine (C16:0,C20:5), ratio versus control",day 28 (Table 3a),1.21*
same,"Docosahexaenoic acid (C22:cis[4,7,10,13,16,19]6), ratio versus control",day 28 (Table 3b),0.14*
same,"Phosphatidylcholine (C18:0,C22:6), ratio versus control",day 28 (Table 3b),0.27*
same,"alpha-Tocopherol, ratio versus control",day 28 (Table 3b),0.64*
